How the values of series [1] were obtained: Second, we examined the cytotoxicity toward mammalian cancer cells and hemolytic activity of 1. […] Hemolytic activity was evaluated by monitoring hemoglobin leakage from rabbit red blood cells as a consequence of membrane damage. The concentration of 1 required to cause 10% hemoglobin leakage (HC10) was 160 nM. Thus, the P388 cytotoxicity of 1 was 28-fold more sensitive than its hemolytic activity.
Mammalian cytotoxicity assay of purified peptides.
B22 was diluted with the growth medium with 2% DMSO to various concentrations as 5-fold serial dilution.
The collected cells were resuspended into
the growth medium at 2 × 10^4 cells/mL. Aliquots of the former medium (2% DMSO, 100 µL) containing
peptides and the latter medium containing P388 cells (100 µL) were mixed in a 96-well cell culture plate
(TR5003, TrueLine). The final concentration of P388 cells and DMSO were 1 × 10^4 cells/mL and 1%,
respectively. […]
were determined by WST -1 assay. A solution of 1-methoxy PMS and WST-1 in the growth medium
(1-methoxy PMS 0.70 mg/mL in Milli-Q/WST-1 3.6 mg/mL in pH 7.4 HEPES buffer = 1/9) was added to
each well of the plate (20.0 µL/well). The cells were incubated for 4 h under atmosphere of 5% CO 2 at
37 °C. The absorbance of each well at 415 nm was measured using a Benchmark microplate reader
(Bio-Rad) or Thermo Scientifi c Multiskan GO (Thermo Fisher Scientific). The cytotoxicities of the purified
peptides were evaluated as IC 50 (nM) by means of three replicates. Sigmoidal curve fittings were performed

The subject of series [2] is Listeria monocytogenes 10403S. Particulars: for Antibacterial activity MIC: 10403S; for antibacterial activity/MIC: L. monocytogenes. How it is done:
(§1) Third, 1 was subjected to five pathogenic Gram-positive bacteria.
(§2) Evaluation of antibacterial spectra of purified peptides. The MIC assay was performed according to the Clinical and Laboratory Standards Institute protocols. The antibacterial activities of the purified peptides A1, B01–B04, B11–B13, B21, and B22 were measured using the broth microdilution method. 6 Serial dilutions of the peptides were prepared in cation adjusted Mueller Hinton Broth. Each dilution (100 µL) was dispensed to each well of the round-bottom plate to obtain final concentrations ranging from 64 µg/mL to 0.00024 µg/mL. Bacteria were grown at 37 °C overnight on Tryptic Soy Broth or Mueller Hinton Broth agar plates.
(§3) The bacterial colonies were suspended in 0.9% saline to obtain OD 625 of 0.08–0.13 using a spectrophotometer UV-1280 (Shimadzu). The resultant suspension was diluted with cation adjusted Mueller Hinton Broth (1/20). The resultant mixture (10 .0 µL) was inoculated to each well of the plates (approximately 5 × 10^4 CFU/well), mixed, and incubated at 37 °C for 18–24 h. The MIC value was determined as the minimum concentration that inhibited growth of bacteria. For Streptococcus species, cation adjusted Mueller Hinton Broth supplemented with 5% laked horse blood was used. […]

Series [3] concerns Enterococcus faecalis JCM5803. The settings on record: for antibacterial activity/MIC: E. faecalis; for Antibacterial activity MIC: JCM5803. On the procedure: as §1, §2, §3
The test system of series [4] is Streptococcus pyogenes SSI-9. Particulars: for antibacterial activity/MIC: S. pyogenes; for Antibacterial activity MIC: SSI-9. On the procedure:
as §1, §2, §3

Series [5] deals with Streptococcus agalactiae JCM5671. Particulars: for Antibacterial activity MIC: JCM5671; for antibacterial activity/MIC: S. agalactiae. How it is done: as §1, §2, §3
Series [6] has as its system Streptococcus pneumoniae NBRC 102642. Particulars: for Antibacterial activity MIC: NBRC 102642; for antibacterial activity/MIC: S. pneumoniae. On the procedure: as §1, §2, §3
The nature of series [7]: Membrane disruption assay of purified peptides (carboxyfluorescein leakage). The format is biochemical. The arrangement: key: % lysis; Triton X-100 = 100%, DMSO = 0%. Particulars: three replicate lines. On the procedure: Membrane disruption assay of purified peptides. 5(6)-Carboxyfluorescein (CF)-encapsulated large […]
through Nuclepore polycarbonate filters mounted in the mini-extruder apparatus. A solution of egg yolk phosphatidylcholine (EYPC, 22.0 mg, 28.9 µmol) in CHCl3 (225 µL) and egg yolk phosphatidylglycerol (1.2 0 […]
mM HEPES, 100 mM NaCl, 20 mM CF) by sonication. After five -times freeze-thaw cycles, the lipid […]
concentration of the resultant CF -encapsulated LUV suspension was deduced from the phosphatidylcholine concentration determined by using Phospholipid C -Test Wako. The lipid concentration of the LUV […]
as 5-fold serial dilution. The solution of peptide (2.0 µL) and the CF-encapsulated LUV suspension (200 […]
The resultant suspension was incubated at room temperature for 30 min. The fluorescence (Ex. 490 nm/Em. 517 nm) of each well was measured on Gemini EM microplate reader. Triton X-100/H2O (5/95, 3.0 µL), DMSO (2.0 µL), and the LUV suspension were mixed in each plate to determine 100% lysis. […]
was used to determine 0% lysis. The membrane disruption activities of tested peptides ( I) were normalized against 100% lysis by Triton X-100 (Imax) and 0% lysis by DMSO ( I0) according to Supplementary Equation 2 , where Ix is the fluorescence intensity.
The membrane disruption activities of the purified peptides were plotted as means of three replicates (Supplementary Figure 1).

[8] abbreviates: cytotoxicity against P388 cells/IC50.
[9] abbreviates: IC50, mammalian cytotoxicity assay.

Structures are written as SMILES. Several values for one entry are separate records, joined by “and”; a condition that tells them apart may be missing. Identical values can stand only once. Like-named read-outs stand apart in the source and are kept apart here. Where a SMILES comes first, the peptide text is derived from it. [ ]: non-standard residue; d: D form. The star is where a group is joined. NHCH2CH2OH = OCCN*; For = O=C*

For orientation: IC50 means the point on the concentration scale where inhibition reaches its midpoint.

Turning to `CC(C)C[C@@H](NC(=O)[C@H](Cc1c[nH]c2ccccc12)NC(=O)[C@H](NC(=O)[C@@H](NC(=O)[C@H](NC(=O)[C@H](C)NC(=O)[C@H](NC(=O)[C@H](C)NC(=O)CNC(=O)[C@@H](NC=O)C(C)C)C(C)C)C(C)C)C(C)C)C(C)C)C(=O)N[C@@H](Cc1c[nH]c2ccccc12)C(=O)N[C@@H](C(=O)N[C@@H](Cc1c[nH]c2ccccc12)C(=O)N[C@@H](C(=O)N[C@@H](Cc1c[nH]c2ccccc12)C(=O)NCCO)C(C)C)C(C)C` [B01] (For-VGA[dV]A[dV]V[dV]W[dL]W[dV]W[dV]W-NHCH2CH2OH), the IC50 was 17 nM in series [1] (Cytotoxicity IC50) and 17.5 ± 12 nM in series [1] (setting [8]). The “Antibacterial activity MIC” value in series [2] was determined as 4.3 µM; in series [3] it was 0.27 µM; in series [4] it was 0.016 µM; in series [5] it was 8.7 µM; in series [6] it was 0.0021 µM. Also, the “antibacterial activity/MIC” value in series [2] is 8 mg/L; in series [3] it was 0.5 mg/L; in series [4], 0.03 mg/L; in series [5], 16 mg/L; in series [6] it was 0.0039 mg/L. Also, the “Supplementary Figure 1 dose-response value” in series [7] (concentration 0.000512 nM) is 5.613 and 12.0264 and 5.319; in series [7] (concentration 0.00256 nM), 11.158 and 7.538 and 10.5473; in series [7] (concentration 0.0128 nM) it was 8.299 and 14.9537 and 14.0939; in series [7] (concentration 0.064 nM), 5.499 and 8.531 and 5.078; in series [7] (concentration 0.32 nM) it was 13.2144 and 15.7695 and 7.692; in series [7] (concentration 1.6 nM) it was 9.848 and 4.6318 and 9.4348. The “Supplementary Figure 1 dose-response value” in series [7] (concentration 8 nM) was 14.4288 and 20.3717 and 10.7944; in series [7] (concentration 40 nM), 26.5947 and 14.0138 and 18.3251; in series [7] (concentration 200 nM), 33.1976 and 27.0157 and 30.6543; in series [7] (concentration 1000 nM), 29.7517 and 27.7024 and 34.1347; in series [7] (concentration 5000 nM) it was 48.3001 and 45.6479 and 77.7437.
`CC(C)C[C@@H](NC(=O)[C@H](C)NC(=O)CNC(=O)[C@@H](NC=O)C(C)C)C(=O)N[C@@H](C)C(=O)N[C@@H](C(=O)N[C@H](C(=O)N[C@@H](C(=O)N[C@@H](Cc1c[nH]c2ccccc12)C(=O)N[C@H](CC(C)C)C(=O)N[C@@H](Cc1c[nH]c2ccccc12)C(=O)N[C@H](CC(C)C)C(=O)N[C@@H](Cc1c[nH]c2ccccc12)C(=O)N[C@H](CC(C)C)C(=O)N[C@@H](Cc1c[nH]c2ccccc12)C(=O)NCCO)C(C)C)C(C)C)C(C)C` [compound 1, Gramicidin A] (For-VGA[dL]A[dV]V[dV]W[dL]W[dL]W[dL]W-NHCH2CH2OH): the half-maximal inhibitory concentration (IC50) in series [1] (setting [9]) is 4.86 nM; in series [1] (setting [8]), 5.81 ± 0.99 nM. The “Antibacterial activity MIC” value in series [2] amounted to 4.3 µM; in series [3], 0.27 µM; in series [4] it was 0.033 µM; in series [5], 1.1 µM; in series [6], 0.0083 µM. The “antibacterial activity/MIC” value in series [2] was 8 mg/L; in series [3], 0.5 mg/L; in series [4], 0.063 mg/L; in series [5], 2 mg/L; in series [6] it was 0.016 mg/L. The “Supplementary Figure 1 dose-response value” in series [7] (concentration 0.000512 nM) was 1.36 and 3.869 and -1.044; in series [7] (concentration 0.00256 nM) it was 3.2 and 1.0665 and -1.239; in series [7] (concentration 0.0128 nM) it was 3.406 and 6.277 and 1.505; in series [7] (concentration 0.064 nM) it was 4.522 and 0.6394 and 10.119; in series [7] (concentration 0.32 nM) it was 0.03727 and -1.4564 and 8.0175; in series [7] (concentration 1.6 nM), 1.309 and 1.672 and 5.415. The “Supplementary Figure 1 dose-response value” in series [7] (concentration 8 nM) was 11.9937 and 6.964 and 7.105; in series [7] (concentration 40 nM), 14.5572 and 22.409 and 17.147; in series [7] (concentration 200 nM) it was 26.5638 and 29.1236 and 30.6096; in series [7] (concentration 1000 nM) it was 36.4056 and 34.1405 and 30.0737; in series [7] (concentration 5000 nM), 57.2698 and 45.8291 and 46.6701.
As for `CC(C)C[C@@H](NC(=O)[C@H](Cc1c[nH]c2ccccc12)NC(=O)[C@@H](CC(C)C)NC(=O)[C@H](Cc1c[nH]c2ccccc12)NC(=O)[C@@H](CC(C)C)NC(=O)[C@H](Cc1c[nH]c2ccccc12)NC(=O)[C@H](NC(=O)[C@@H](NC(=O)[C@H](NC(=O)[C@H](C)NC(=O)[C@H](NC(=O)[C@H](C)NC(=O)CNC(=O)[C@@H](NC=O)C(C)C)C(C)C)C(C)C)C(C)C)C(C)C)C(=O)N[C@@H](Cc1c[nH]c2ccccc12)C(=O)NCCO` [A1] (For-VGA[dV]A[dV]V[dV]W[dL]W[dL]W[dL]W-NHCH2CH2OH), the IC50 in series [1] (Cytotoxicity IC50) was 4.1 nM; in series [1] (setting [9]) it was 3.52 nM. The “Antibacterial activity MIC” value was 1.1 µM in series [2]; 0.13 µM in series [3]; 0.008 µM in series [4]; 0.54 µM in series [5]; 0.001 µM in series [6]. Also, the “antibacterial activity/MIC” value is 2 mg/L in series [2]; 0.25 mg/L in series [3]; 0.015 mg/L in series [4]; 1 mg/L in series [5]; 0.0019 mg/L in series [6]. The “Supplementary Figure 1 dose-response value” was 15.596 and 11.1897 and 18.8476 in series [7] (concentration 0.000512 nM); 19.0421 and 18.9023 and 11.8141 in series [7] (concentration 0.00256 nM); 18.8248 and 18.451 and 13.318 in series [7] (concentration 0.0128 nM); 5.787 and 7.036 and 10.8676 in series [7] (concentration 0.064 nM); 6.642 and 18.6722 and 17.2971 in series [7] (concentration 0.32 nM); 5.416 and 5.449 and 6.466 in series [7] (concentration 1.6 nM). Moreover, the “Supplementary Figure 1 dose-response value” was 18.3076 and 19.5293 and 5.647 in series [7] (concentration 8 nM); 20.3219 and 7.57 and 17.0093 in series [7] (concentration 40 nM); 24.2624 and 22.7393 and 19.0922 in series [7] (concentration 200 nM); 20.1834 and 27.4358 and 26.1069 in series [7] (concentration 1000 nM); 74.0004 and 66.4045 and 47.3037 in series [7] (concentration 5000 nM).

For the origin of these results see paper PMC7531004, “Discovery of gramicidin A analogues with altered activities by multidimensional screening of a one-bead-one-compound library” (Nature Communications, 2020).
